Results on 14 compounds are retold here after patent US9550792B2, “Polycyclic substituted pyrazole kinase activity inhibitors and use thereof” (priority 2013, dated 2017).

≈ marks a conversion by molar mass, not a printed value. Read-outs that look alike come from different tables or passages of the source.

Data set [1] concerns the target T1, CDK2/A (Homo sapiens, UniProt P24941).
T1 construct: purchased
As to the kind of experiment: Inhibitory activity to CDK2 (FRET). The format is biochemical. The conditions noted are these: for inhibition at 1 µM: read-out: CDK2 inhibition % (1 × 10^−6 mol/L). On the procedure:
CDK2/A was purchased in the form of a kit or obtained through purification.
Procedures: CDK2/A is diluted to a suitable concentration with kinase diluent. The kinase reaction mixture contains CDK2/A, peptide substrate, HEPES (pH7.5), BRIJ-35, MgCl2 and EDTA. CDK2 phospho-peptide substrate is used as the control of 100% phosphorylation and ATP-free as the control of 0% phosphorylation. After 1 h, the diluted Development Reagent A is added into the reaction system. Then the reaction is allowed to proceed for 1 h and then quenched with Stop Reagent. […] The inhibitions of the tested compounds are calculated according to the formula.

In data set [2] the target is T2, Aurora A (Homo sapiens, UniProt O14965).
T2 construct: purchased
T2 sequence (O14965 1-403): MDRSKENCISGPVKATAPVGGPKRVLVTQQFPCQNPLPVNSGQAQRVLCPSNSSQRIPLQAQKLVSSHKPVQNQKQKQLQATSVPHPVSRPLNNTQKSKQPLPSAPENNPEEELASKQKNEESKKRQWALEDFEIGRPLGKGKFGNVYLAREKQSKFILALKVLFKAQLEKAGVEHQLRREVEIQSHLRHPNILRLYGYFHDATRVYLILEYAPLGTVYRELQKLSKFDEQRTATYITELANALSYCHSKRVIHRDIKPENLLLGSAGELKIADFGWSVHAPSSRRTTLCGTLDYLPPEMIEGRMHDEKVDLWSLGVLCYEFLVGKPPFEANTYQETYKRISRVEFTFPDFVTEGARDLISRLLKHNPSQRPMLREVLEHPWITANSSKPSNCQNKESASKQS
As to the kind of experiment: Inhibitory activity to Aurora A (FRET). It is filed as biochemical. The conditions noted are these: for inhibition at 1 µM: read-out: Aurora A inhibition % (1 × 10^−6 mol/L). On the procedure:
The inhibitory activities of the synthesized compounds for Aurora A is determined by fluorescence resonance energy transfer (FRET) and were compared with the positive control drug so as to screen the compounds with better activities. Aurora A was purchased in the form of a kit or obtained through purification. Procedures: Aurora A is diluted to a suitable concentration with kinase diluent. The kinase reaction mixture contains Aurora A, peptide substrate, HEPES (pH7.5), BRIJ-35, MgCl2 and EDTA. Aurora A phospho-peptide substrate is used as the control of 100% phosphorylation and ATP-free as the control of 0% phosphorylation. After 1 h, the diluted Development Reagent A is added into the reaction system. Then the reaction is allowed to proceed for 1 h and then quenched with Stop Reagent. The excitation wavelength is 400 nm and the fluorescence intensity is detected at 445 nm (coumarin) and 520 nm (fluorescein). The inhibitions of the tested compounds are calculated according to the formula.

The test system of data set [3] is Candida albicans - ATCC 36082. The data set is described as follows: Antifungal activity, modified broth microdilution. It is filed as cell-based. The conditions noted are these: 48 hours at 35, approximately 50% reduction of growth. The method, then:
(§1) The test microorganisms are maintained on Sabourahd Dextrose Agar slant at 4[…]. Singlet suspension of each microorganism is prepared by growing the yeast overnight at 27[…] on a rotating drum in yeast-nitrogen base broth (YNB) with amino acids (Difco, Detroit, Mich.), (pH 7.0) and 0.05 morpholine propanesulphonic acid (MOPS). […] The activity of the test compound is determined using a modified broth microdilution technique. […] Well 12 serves as a growth control. […] Inoculated plate is incubated for 48 hours at 35 °C. […] Minimal Cytolytic Concentration (MCC) is determined by subculturing all wells from the 96-well plate onto a Sabourahd Dextrose Agar (SDA) plate, incubating for 1-2 days at 35 °C, and then checking viability.
On the technique in general: Broth dilution looks for growth in wells or tubes with falling amounts of substance.

The subject of data set [4] is Candida parapsilosis. As to the kind of experiment: Antifungal activity, modified broth microdilution. The conditions noted are these: 48 hours at 35, approximately 50% reduction of growth. The format is cell-based. On the procedure: as §1
Data set [5] has as its system Candida tropicalis. As to the kind of experiment: Antifungal activity, modified broth microdilution. It is filed as cell-based. The conditions noted are these: 48 hours at 35, approximately 50% reduction of growth. On the procedure: as §1
For data set [6], the system named is Cryptococcus neoformans. The data set is described as follows: Antifungal activity, modified broth microdilution. It is filed as cell-based. The following applies: 48 hours at 35, approximately 50% reduction of growth. On the procedure:
as §1

The subject of data set [7] is Phytophthora infestans. It is filed as in vivo. The arrangement: concentration or dose not given beside the values.

As a reminder, the MIC is the least concentration at which growth counts as inhibited. A word on the melting point: it is the temperature, or range, at which the solid turns liquid. Consider `CN1CCN(Cc2ccc(NC(=O)c3n[nH]cc3Nc3ncnc4ccoc34)cc2)CC1` [Compound I-23, 4-(4-furo[3,2-d]pyrimidinylamino)-N-(4-((4-methyl-1-piperazinyl)methyl)phenyl)-1H-3-pyrazolecarboxamide], for which the melting point was 277 to 279 °C. In addition, in data set [1], the inhibition at 1 µM stood at 60.6%. In addition, the inhibition at 1 µM in data set [2] came out at 59.7%. Further, it took 2.92 µg/mL (≈ 6.75 µM) to inhibit growth in data set [3] (Candida albicans, ATCC36082) (MIC). In data set [4] (Lodderomyces parapsilosis), this compound registered an MIC of 4.32 µg/mL (≈ 9.99 µM). Besides, the MIC in data set [5] (Candida tropicalis) amounted to 3.24 µg/mL (≈ 7.49 µM). Moreover, the MIC in data set [6] (Cryptococcus neoformans) amounted to 5.82 µg/mL (≈ 13.5 µM). Further, in data set [7] (0.0001 (unit not given)), the “Severity of tomato leaf blight” value was “+++ (40-60% blight)”. For the same compound, the “Severity of tomato leaf blight” value in data set [7] (0.001 (unit not given)) is on record as “++ (15-40% blight)”. In addition, the “Severity of tomato leaf blight” value in data set [7] (0.01 (unit not given)) was “−”. Also, the “Severity of tomato leaf blight” value in data set [7] (0.1 (unit not given)) is “−”.

`Cc1cc2ncnc(Nc3c[nH]nc3C(=O)Nc3ccc(CN4CCN(C)CC4)cc3)c2[nH]1` [Compound I-19, 4-(4-(6-methyl-5H-pyrrolo[3,2-d]pyrimidinyl)amino)-N-(4-((4-methyl-1-piperazinyl)methyl)phenyl)-1H-3-pyrazolecarboxamide]: in data set [1], the “CDK2 inhibition % (1 × 10^−6 mol/L)” value is reported as 65.01%. For the same compound, the “Aurora A inhibition % (1 × 10^−6 mol/L)” value in data set [2] came to 70.28%. For the same compound, in data set [3], the “Candida albicans - ATCC 36082 MIC” value turned out to be 11.80 µg/mL. Moreover, the “Candida parapsilosis MIC” value in data set [4] stood at 6.45 µg/mL. Also, the “Candida tropicalis MIC” value in data set [5] was 8.58 µg/mL. For the same compound, in data set [6], the “Cryptococcus neoformans MIC” value is 12.86 µg/mL. The “Severity of tomato leaf blight” value is recorded as “++++ (>60% blight)” in data set [7] (0.0001 (unit not given)), “++ (15-40% blight)” in data set [7] (0.001 (unit not given)), “+ (0-15% blight)” in data set [7] (0.01 (unit not given)) and “−” in data set [7] (0.1 (unit not given)).

`O=C(Nc1ccc(CN2CCOCC2)cc1)c1n[nH]cc1Nc1nccc2occc12` [Compound I-34, 4-(4-furo[3,2-c]pyridylamino)-N-(4-((4-morpholinyl)methyl)phenyl)-1H-3-pyrazolecarboxamide] came in with a melting point of 268 to 271 °C. Moreover, in data set [1], the inhibition at 1 µM was 65.8%. For the same compound, in data set [2], the inhibition at 1 µM came to 50.5%.

For `Cc1c[nH]c2ncnc(Nc3c[nH]nc3C(=O)Nc3ccc(CN4CCN(C)CC4)cc3)c12` [Compound I-15, 4-(4-(5-methyl-7H-pyrrolo[2,3-d]pyrimidinyl)amino)-N-(4-((4-methyl-1-piperazinyl)methyl)phenyl)-1H-3-pyrazolecarboxamide], in data set [1], the “CDK2 inhibition % (1 × 10^−6 mol/L)” value amounted to 73.16%. Further, the “Aurora A inhibition % (1 × 10^−6 mol/L)” value in data set [2] is listed as 57.43%. Moreover, the “Candida albicans - ATCC 36082 MIC” value in data set [3] was found to be 6.77 µg/mL. The “Candida parapsilosis MIC” value in data set [4] was found to be 5.78 µg/mL. The “Candida tropicalis MIC” value in data set [5] came to 5.00 µg/mL. Moreover, the “Cryptococcus neoformans MIC” value in data set [6] was 9.40 µg/mL. Also, the “Severity of tomato leaf blight” value in data set [7] (0.0001 (unit not given)) is reported as “++ (15-40% blight)”; in data set [7] (0.001 (unit not given)) it was “++ (15-40% blight)”; in data set [7] (0.01 (unit not given)), “+ (0-15% blight)”; in data set [7] (0.1 (unit not given)), “−”.

For `O=C(Nc1ccc(CN2CCOCC2)cc1)c1n[nH]cc1Nc1nccc2sccc12` [Compound I-26, 4-(4-thieno[3,2-c]pyridylamino)-N-(4-((4-morpholinyl)methyl)phenyl)-1H-3-pyrazolecarboxamide], the melting point lay in the range of 269 to 271 °C. Besides, the inhibition at 1 µM in data set [1] worked out at 73.1%. Besides, in data set [2], the inhibition at 1 µM was 61.1%.

For `O=C(Nc1ccc(CN2CCOCC2)cc1)c1n[nH]cc1Nc1ccnc2occc12` [Compound I-42, 4-(4-furo[2,3-b]pyridylamino)-N-(4-((4-morpholinyl)methyl)phenyl)-1H-3-pyrazolecarboxamide], the melting point was in the range of 269 to 271 °C. The inhibition at 1 µM in data set [1] stood at 54.2%. Besides, the inhibition at 1 µM in data set [2] worked out at 51.8%.

Take `CN1CCN(Cc2ccc(NC(=O)c3n[nH]cc3Nc3nccc4ccoc34)cc2)CC1` [Compound I-37, 4-(7-furo[2,3-c]pyridylamino)-N-(4-((4-methyl-1-piperazinyl)methyl)phenyl)-1H-3-pyrazolecarboxamide]: the melting point is 258 to 261 °C. Moreover, in data set [1], the inhibition at 1 µM came to 72.2%. Moreover, the inhibition at 1 µM in data set [2] is 59.6%.

Regarding `CN1CCN(Cc2ccc(NC(=O)c3n[nH]cc3Nc3ncnc4cc[nH]c34)cc2)CC1` [Compound I-17, 4-(4-(5H-pyrrolo[3,2-d]pyrimidinyl)amino)-N-(4-((4-methyl-1-piperazinyl)methyl)phenyl)-1H-3-pyrazolecarboxamide], in data set [1], the “CDK2 inhibition % (1 × 10^−6 mol/L)” value is listed as 65.96%. Further, the “Aurora A inhibition % (1 × 10^−6 mol/L)” value in data set [2] is 62.17%. Also, the “Candida albicans - ATCC 36082 MIC” value in data set [3] is 9.49 µg/mL. The “Candida parapsilosis MIC” value in data set [4] is 2.76 µg/mL. The “Candida tropicalis MIC” value in data set [5] was determined as 4.70 µg/mL. For the same compound, the “Cryptococcus neoformans MIC” value in data set [6] amounted to 7.99 µg/mL. Further, the “Severity of tomato leaf blight” value in data set [7] (0.0001 (unit not given)) is recorded as “+++ (40-60% blight)”; in data set [7] (0.001 (unit not given)) it was “++ (15-40% blight)”; in data set [7] (0.01 (unit not given)), “+ (0-15% blight)”; in data set [7] (0.1 (unit not given)), “−”.

With `O=C(Nc1ccc(CN2CCOCC2)cc1)c1n[nH]cc1Nc1nccc2ccsc12` [Compound I-30, 4-(7-thieno[2,3-c]pyridylamino)-N-(4-((4-morpholinyl)methyl)phenyl)-1H-3-pyrazolecarboxamide], the melting point lay within 271 to 273 °C. The inhibition at 1 µM in data set [1] is 73.1%. Moreover, the inhibition at 1 µM in data set [2] is 55.1%.

Consider `O=C(Nc1ccc(CN2CCOCC2)cc1)c1n[nH]cc1Nc1ccnc2ccoc12` [Compound I-40, 4-(7-furo[3,2-b]pyridylamino)-N-(4-((4-morpholinyl)methyl)phenyl)-1H-3-pyrazolecarboxamide], for which the melting point lay within 275 to 278 °C. The inhibition at 1 µM in data set [1] amounted to 20.2%. In data set [2], the inhibition at 1 µM turned out to be 40.7%.

The compound `CN1CCN(Cc2ccc(NC(=O)c3n[nH]cc3Nc3ccnc4occc34)cc2)CC1` [Compound I-41, 4-(4-furo[2,3-b]pyridylamino)-N-(4-((4-methyl-1-piperazinyl)methyl)phenyl)-1H-3-pyrazolecarboxamide] registered a melting point of 273 to 276 °C. Further, the inhibition at 1 µM in data set [1] turned out to be 56.2%. Also, the inhibition at 1 µM in data set [2] is 42.6%.

`O=C(Nc1ccc(CN2CCOCC2)cc1)c1n[nH]cc1Nc1nccc2ccoc12` [Compound I-38, 4-(7-furo[2,3-c]pyridylamino)-N-(4-((4-morpholinyl)methyl)phenyl)-1H-3-pyrazolecarboxamide] registered a melting point of 268 to 272 °C. The inhibition at 1 µM in data set [1] is 64.8%. The inhibition at 1 µM in data set [2] amounted to 51%.

Turning to `O=C(Nc1ccc(CN2CCOCC2)cc1)c1n[nH]cc1Nc1ncnc2ccsc12` [Compound I-10, 4-(4-thieno[3,2-d]pyrimidinylamino)-N-(4-((4-morpholinyl)methyl)phenyl)-1H-3-pyrazolecarboxamide], the melting point fell in the range of 275 to 277 °C. The inhibition at 1 µM in data set [1] is 56.2%. In addition, the inhibition at 1 µM in data set [2] is 54.9%.

For the compound `O=C(Nc1ccc(CN2CCOCC2)cc1)c1n[nH]cc1Nc1ncnc2ccoc12` [Compound I-24, 4-(4-furo[3,2-d]pyrimidinylamino)-N-(4-((4-morpholinyl)methyl)phenyl)-1H-3-pyrazolecarboxamide], the melting point was 271 to 273 °C. Further, in data set [1], the inhibition at 1 µM was 67.1%. Besides, in data set [2], the inhibition at 1 µM was determined as 49.2%.
